Where “and” joins values, the source holds several entries; their conditions need not be identical. Equal entries are not always repeated. Where two headings read alike, the source gives them in different places. Marks after values point to notes of the source that are not given here.

The term Cmax denotes the peak of the concentration-time curve. The Tmax is the time at which the peak concentration occurs.

The nature of series [1]: Passive permeability-surface area products by Crone-Renkin equation. An excerpt: Simcyp Animal Simulator V17 (Certara Inc.) was employed for developing a bottom-up whole body PBPK model incorporating the specified multi-compartment brain model. Based on its anatomy and physiology, the whole brain is described by three compartments, viz. brain blood, brain mass and cerebrospinal fluid (CSF) as illustrated in Fig 1 (Simcyp® Rat Simulator). For model development, the physiological/ system-specific parameters were inferred from the existing rodent species within the animal simulator while, the key drug- specific parameters used are summarized in Table 1. Briefly, all the physiochemical and binding to blood components (plasma proteins and erythrocytes) parameters of letrozole were derived from expansive literature review. […] Full-PBPK model was employed for drug distribution while the Rodgers and Rowland method or “Method 2”, as defined in Simcyp v17, predicted the volume of distribution (Vss). For the multi-compartment brain model, the passive permeability-surface area product on the BBB (PSB) was determined using the Crone- Renkin Equation [25, 26]: PSB=−Fpfln(1−Kin/Fpf) (3) where, Fpf is the cerebral blood or perfusion flow rate and Kin is the brain uptake clearance. […] The passive permeability-surface area product on the blood-cerebrospinal fluid barrier (BCSFB), PSC, was assumed as half of the PSB [19, 27] while the passive permeability-surface area product on the cerebrospinal fluid-brain barrier (CSFBB), PSE, was set at 80 mL/min, assuming a high permeability of this barrier. Brain ECF concentrations were predicted using the in vivo unbound fraction in the brain (fu, brain) for letrozole multiplied by the simulated total brain concentrations. The fu, brain for letrozole was experimentally determined in both healthy and tumor-bearing female Sprague-Dawley rats (N = 4/ group).

Series [2] can be described thus: Single dose plasma pharmacokinetics (4 mg/kg i.p.), NCA. The format is in vivo, Sprague-Dawley rats. The conditions noted are these: for Cmax / Tmax / AUC(0-t) / half-life: ip; for Cmax / Tmax / CL (systemic clearance), plasma / Half-life t1/2, plasma / AUC 0–12, plasma unbound / AUC 0–72, plasma unbound / Cmax, plasma unbound / AUC(0-t) / half-life: single dose 4 mg/kg i.p.; for Cmax: read-out: Cmax, plasma total; for Tmax: read-out: Tmax, plasma total; for AUC 0–12, plasma unbound / AUC 0–72, plasma unbound / Cmax, plasma unbound: fraction unbound 0.38; for half-life: read-out: Half-life t1/2, plasma (converted). The protocol:
Age-matched (7–9 weeks) adult female (201–225 g; N = 10) and male (301–325 g; N = 10) jugular vein cannulated Sprague-Dawley rats (Charles River Laboratories) were used for this study. The experiments were conducted in strict accordance with the University of Cincinnati Institutional Animal Care and Use Committee (UC IACUC)-approved protocol (Protocol Number: 10-11-01-01) and all the studies were performed as per the highest international standards of animal welfare outlined by the NIH’s Guide for the Care and Use of Laboratory Animals. Upon arrival, animals were housed individually under pathogen-free, temperature and humidity-controlled environment on a 12/12 h light/dark cycle and were given access to standard chow and water ad libitum (ad-lib). To maintain the patency of the jugular vein catheters, they were flushed with normal saline and locked with the heparin-dextrose solution every other day.
Within 10 minutes of collection, plasma was separated by centrifugation of the blood samples at 4,000 rpm for 15 min. Microdialysis samples were collected simultaneously through the probes at the same time points from 0–12 hours.
Letrozole was extracted from the plasma samples using the liquid-liquid extraction technique. Calibration standards were freshly prepared by spiking working letrozole solution into the blank rat plasma to give a concentration curve ranging from 5 to 5000 ng/ml. Briefly, 50 μl of the plasma sample/standard spiked with known letrozole concentration was transferred to a glass tube containing 1 mL of the extraction solvent methyl-tertiary-butyl ether. All the samples were then vortex mixed for 40 sec and centrifuged for 5 min. 800 μl of the supernatant was decanted into a clean test tube and evaporated to dryness using a CentriVap evaporator. The precipitate was reconstituted in 100 μl of the mobile phase and vortex mixed, following which, 50 μl sample volume was injected onto the HPLC system for analysis. The dialysis samples, on the other hand, were injected directly onto HPLC.

Where [3] appears, read: Sprague-Dawley, rat, plasma, female rats.
[4] abbreviates: Sprague-Dawley, rat, plasma, male rats.

For `N#Cc1ccc(C(c2ccc(C#N)cc2)n2cncn2)cc1` [letrozole], the “PSC (passive permeability-surface area product on the BCSFB)” value in series [1] (Assumed to be half of PSB) is reported as 0.42 mL/min. In addition, the “PSB (passive permeability-surface area product on the BBB)” value in series [1] (Determined using Eq (3), assuming 1800 mg brain weight) is recorded as 0.84^b mL/min. For the same molecule, the PSB result in series [1] (Eq (3)) is “bBased on PSB = 0.469 mL/min/g brain weight, assuming 1800 mg brain weight”. The clearance in series [2] (Sprague-Dawley, rat, plasma, intraperitoneal, 4 mg/kg, female rats, read-out: clearance observed in this study) was around 0.25 mL/min. The Cmax in series [2] (setting [3]) came out at 1200 ng/mL; in series [2] (setting [4]), 1060 ng/mL. For the same molecule, the Tmax was determined as 8.5 h in series [2] (setting [3]) and 6.5 h in series [2] (setting [4]). The “CL (systemic clearance), plasma” value in series [2] (female rats) was 57.4 (13.0)*** ml/h/kg; in series [2] (male rats, 4 mg/kg) it was 145.9 ± 14.0 ml/h/kg and 146 (14.0) ml/h/kg. The “Half-life t1/2, plasma” value in series [2] (female rats, 4 mg/kg) was 34.0 (3.6)*** h; in series [2] (male rats, 4 mg/kg) it was 9.2 (2.4) h and 9.23 h. The “AUC 0–12, plasma unbound” value is listed as 4446 (1160) h.ng/ml in series [2] (female rats) and 4066 (1140) h.ng/ml in series [2] (male rats). Besides, the “AUC 0–72, plasma unbound” value in series [2] (female rats) was 20668 (4980) h.ng/ml; in series [2] (male rats), 9447 (1920) h.ng/ml. For the same molecule, the results for the “Cmax, plasma unbound” value in series [2] (female rats) and in series [2] (male rats) were 456 (60) ng/ml and 403 (136) ng/ml, respectively. In addition, the AUC(0-t) turned out to be 11700 ng·h/mL in series [2] (female, Sprague-Dawley, rat, plasma, 4 mg/kg, female rats, read-out: AUC 0–12, plasma total); 54400 ng·h/mL in series [2] (female, Sprague-Dawley, rat, plasma, 4 mg/kg, female rats, read-out: AUC 0–72, plasma total); 10700 ng·h/mL in series [2] (male, Sprague-Dawley, rat, plasma, 4 mg/kg, male rats, read-out: AUC 0–12, plasma total); 24900 ng·h/mL in series [2] (male, Sprague-Dawley, rat, plasma, 4 mg/kg, male rats, read-out: AUC 0–72, plasma total). In addition, the half-life in series [2] (female, Sprague-Dawley, rat, plasma, 4 mg/kg, female rats) was around 34 h; in series [2] (male, Sprague-Dawley, rat, plasma, 4 mg/kg, male rats), around 9 h.

The record behind these values is paper PMC8018653, “Gender-based differences in brain and plasma pharmacokinetics of letrozole in sprague-dawley rats: Application of physiologically-based pharmacokinetic modeling to gain quantitative insights” (PLoS ONE, 2021).
